Experimental data reported in PubChem BioAssay (NCI).
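Step 1: Grow cells in 96-well plates. Step 2: Expose to compound for 48 hours at 5 concentrations. Step 3: Interpolate endpoints linearly; if unreached, use highest concentration. GI50 is the concentration that inhibits growth by half. TGI is the concentration that stops growth completely.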 Where a SMILES comes first, the peptide text is derived from it. The star is where a group is joined. Cbz = O=C(OCc1ccccc1)*; OBn = c1ccc(CO*)cc1

Experiments:
Experiment in all cases: NCI-60 cell line screen, 48 h
LOX IMVI melanoma = system: LOX IMVI melanoma
MOLT-4 leukemia = system: MOLT-4 leukemia
NCI-H522 lung = system: NCI-H522 lung
OVCAR-4 ovarian = system: OVCAR-4 ovarian
RPMI-8226 leukemia = system: RPMI-8226 leukemia
SN12C renal = system: SN12C renal
TK-10 renal = system: TK-10 renal
UACC-257 melanoma = system: UACC-257 melanoma
UO-31 renal = system: UO-31 renal
MDA-MB-231 breast = system: MDA-MB-231 breast

Structure (SMILES) | TGI (LOX IMVI melanoma) [µM] | TGI (MOLT-4 leukemia) [µM] | TGI (NCI-H522 lung) [µM] | TGI (OVCAR-4 ovarian) [µM] | TGI (RPMI-8226 leukemia) [µM] | TGI (SN12C renal) [µM] | TGI (TK-10 renal) [µM] | TGI (UACC-257 melanoma) [µM] | TGI (UO-31 renal) [µM] | TGI (MDA-MB-231 breast) [µM] | GI50 (LOX IMVI melanoma) [µM] | GI50 (OVCAR-4 ovarian) [µM] | GI50 (SN12C renal) [µM] | GI50 (TK-10 renal) [µM] | GI50 (UACC-257 melanoma) [µM] | GI50 (UO-31 renal) [µM] | GI50 (MOLT-4 leukemia) [µM] | GI50 (NCI-H522 lung) [µM]
CN(C)CCSC(=Nc1ccccc1)N1CCCCC1 | 30 | 58.7 | 29 | 40.2 | 87.4 | 32.6 | 33.1 | 29.6 | 52.5 | – | – | – | – | – | – | – | – | –
c1ccc2c(c1)nc(NC1CCCC1)c1[nH]c(C3CCCC3)nc12 | 30.6 | > 41.7 | 36.9 | 30.1 | > 67.9 | > 83.9 | > 93.3 | 11.1 | 63 | – | – | – | – | – | – | – | – | –
COC(=O)C(Cc1ccc(O)cc1)NC(=O)C(CC(=O)OCc1ccccc1)NC(=O)OCc1ccccc1 (stereo not drawn) (Cbz-Asp(OBn)-Tyr-OMe; configuration not given here) | – | 61.5 | – | – | 49.8 | 39.3 | 33.5 | 45.5 | 49 | 37.5 | – | – | – | – | – | – | – | –
CSc1c(C#N)c(=O)[nH]c2n[nH]c(C)c12 | > 100 | > 100 | – | > 100 | > 100 | > 100 | > 100 | > 100 | > 100 | > 100 | – | – | – | – | – | – | – | –
O=C(N/N=C/c1cc(Cl)cc(Cl)c1[O-])c1ccccc1O.O=C(N/N=C/c1cc(Cl)cc(Cl)c1[O-])c1ccccc1O.[Ni+2] | 1.81 | 29.7 | 0.823 | 1.21 | – | – | 7.81 | 2.67 | 10.1 | – | – | – | – | – | – | – | – | –
OC1(c2cc3ccccc3s2)CCCCC1 | > 100 | 67.4 | 65.6 | > 100 | – | > 100 | > 100 | > 100 | > 100 | 87.5 | – | – | – | – | – | – | – | –
CCCNC(C#N)c1ccc(C(C#N)NCCC)cc1 (stereo not drawn) | > 100 | > 100 | > 100 | > 100 | – | > 100 | > 100 | > 100 | > 100 | > 100 | – | – | – | – | – | – | – | –
[N-]=[N+]=NCc1cccc(Nc2cc(=O)[nH]c(=O)[nH]2)c1 | > 100 | > 100 | > 100 | – | > 100 | > 100 | > 100 | > 100 | > 100 | – | – | – | – | – | – | – | – | –
N#C[S-].[Nd+3].c1ccc(-c2ccccn2)nc1.c1ccc(-c2ccccn2)nc1.c1ccc(-c2ccccn2)nc1 | > 100 | – | – | > 100 | – | > 100 | > 100 | 61.2 | 5.5 | – | 4.23 | 49.8 | 5.82 | 5.05 | 13.5 | 2.19 | – | –
COc1cccc(Cc2c3cc(OC)ccc3cc[n+]2C)c1 | – | > 100 | 92.3 | > 100 | > 100 | > 100 | > 100 | 51.6 | > 100 | – | – | – | – | – | – | – | – | –
COc1ccc2c(c1)n([O-])c(C#N)c(N1CCN(c3ccc([N+](=O)[O-])cc3)CC1)[n+]2=O | > 28.8 | – | 9.97 | > 100 | – | > 100 | > 100 | > 100 | – | > 100 | – | – | – | – | – | – | – | –
O=C1Nc2cc([N+](=O)[O-])ccc2NC1/C(=N\Nc1ccccc1)C(O)c1cccc([N+](=O)[O-])c1 (stereo not drawn) | > 100 | > 100 | > 100 | > 100 | > 100 | > 100 | > 100 | > 100 | > 100 | – | – | – | – | – | – | – | – | –
C/C(=N\NC(N)=S)C(CN(CC(C)C)CC(C)C)C(=O)Nc1ccc(C)cc1C (stereo not drawn) | > 100 | > 100 | > 100 | > 100 | – | > 100 | > 100 | > 100 | > 100 | – | – | – | – | – | – | – | – | –
Cc1cc(S(=O)(=O)O)c(NC(=O)C(=O)C2C=CCS2(=O)=O)cc1Cl (stereo not drawn) | > 100 | > 100 | > 100 | > 100 | > 100 | > 100 | > 100 | > 100 | > 100 | – | – | – | – | – | – | – | – | –
Cc1cccc(C2=NC(C)(C)C(C)(C)N=C2c2cccc(C)n2)n1 | > 100 | – | > 100 | > 100 | > 100 | – | > 100 | > 100 | > 100 | – | – | – | – | – | – | – | – | –
COc1cc(CC2c3cc(OC)c(OC)cc3CCN2C)c(Oc2cc3c(cc2OC)-c2c(O)c(OC)cc4c2C(C3)N(C)CC4)cc1OC (stereo not drawn) | 67.9 | > 100 | 39.3 | 90.7 | – | 42 | 51.3 | 37.4 | 36.1 | 37.7 | – | – | – | – | – | – | – | –
O=C(NC1CCN(Cc2ccccc2)CC1)c1cc2nc(-c3ccc(Cl)s3)cc(C(F)(F)F)n2n1 | – | > 100 | > 100 | 49.3 | – | > 100 | > 100 | – | > 100 | – | – | 12.7 | > 100 | 12.5 | – | > 100 | > 100 | 8.45
